The record followed here is patent US7867522B2, “Method of wound/burn healing using copper-zinc compositions” (JR Chem, LLC, priority 2006, dated 2011).

Common to all, as to format: in vivo, human
Experiment [1] deals with 6 inch laceration to their right forearm. The experiment can be described thus: topical treatment of a forearm laceration. As to conditions: person; emulsion composition applied three times a day for 1 week. The source says: A person is suffering from 6 inch laceration to their right forearm. An emulsion composition suitable for treatment of skin containing an effective amount of copper-zinc malonate active ingredient is applied to their laceration three times a day for 1 week.

Experiment [2] deals with bee sting characterized by pain and swelling. The experiment can be described thus: topical treatment of a bee sting. As to conditions: child; liquid composition containing 0.05% active ingredient, four times a day for 2 days. An excerpt:
A child is suffering from a bee sting characterized by pain and swelling. A liquid composition suitable for treatment of skin containing 0.05% copper-zinc malonate active ingredient is applied to the sting four times a day for 2 days.

For experiment [3], the system named is third degree burns on their left wrist and stomach. The experiment can be described thus: topical treatment of third degree burns. As to conditions: person; liquid composition applied four times a day for 1 month. The source says: A person truck accident victim is suffering from third degree burns on their left wrist and stomach. A liquid composition suitable for treatment of skin containing an effective amount of copper-zinc malonate active ingredient is applied to the third degree burn four times a day for 1 month.

The subject of experiment [4] is open soars on their feet. The experiment in a line: topical treatment of open sores on the feet. As to conditions: person, composition applied to the wound twice a day for 10 days. The source says: A person is suffering from open soars on their feet. A composition containing copper-zinc malonate is applied to the wound twice a day for 10 days. Healing time is reduced.

The subject of experiment [5] is pressure ulcer. The experiment in a line: topical treatment of pressure ulcers in a diabetic patient. An excerpt: A diabetic is suffering from a stage I pressure ulcer characterized by non-blanchable erythema on intact skin. A gel composition suitable for treatment of skin containing an effective amount of copper-zinc malonate active ingredient is routinely applied to the stage I pressure ulcer twice daily.
A diabetic is suffering from a stage II pressure ulcer characterized by partial skin loss involving the epidermis, dermis, or both. The lesion is superficial and presents clinically as a shallow center. A liquid composition suitable for treatment of skin containing an effective amount of copper-zinc malonate active ingredient is applied to the shallow center four times a day for 2 months.
A diabetic is suffering from a stage III pressure ulcer characterized by full thickness skin loss involving damage or necrosis of subcutaneous tissue that extends down to, but not through, underlying fascia. The sore presents clinically as a deep crater. A liquid composition suitable for treatment of skin containing an effective amount of one or more copper-zinc malonate active ingredients is applied to the crater four times a day for 1 month.
A diabetic is suffering from a stage IV pressure ulcer characterized by full thickness skin loss with extensive destruction, and tissue necrosis. A liquid composition suitable for treatment of skin containing an effective amount of copper-zinc malonate active ingredient is applied to the dying tissue four times a day for 1 month.

Where [6] appears, read: liquid composition applied four times a day for 1 month.

Consider copper-zinc malonate, for which, in experiment [1], the “healing and time necessary for the wound to close” value is “promotes healing and decreases the time necessary for the wound to close”. For the same substance, the bee sting entry in experiment [2] is given as “reduced or eliminated”. In experiment [3], the “burnt wrist and stomach, healing time” value is “improve, and healing time is reduced”. Also, the healing time entry in experiment [4] is recorded as “reduced”. Besides, in experiment [5] (gel composition applied twice daily), the “stage I pressure ulcer” value is on record as “reduced or eliminated”. In addition, in experiment [5] (setting [6]), the “stage III pressure ulcer” value is reported as “reduced or eliminated” and the “stage IV pressure ulcer” value is on record as “reduced or eliminated”. Further, the “stage II pressure ulcer” value in experiment [5] (liquid composition applied four times a day for 2 months) is reported as “reduced or eliminated”.
